In patent US20230002408A1, “HETEROARYLDIHYDROPYRIMIDINE DERIVATIVES AND METHODS OF TREATING HEPATITIS B INFECTIONS” (JANSSEN PHARMACEUTICA NV, priority 2019, published 2023) one finds CC50 and EC50 data, which are given here for 15 compounds.

Holding throughout (type): cell-based
One series deals with HepG2.2.15 cells. In words: Cytotoxicity determination in HepG2.2.15 cells (CCK-8 cell viability). To be noted: 6 days treatment, CCK-8, highest concentration 100 uM. The protocol: (§1) HepG2.2.15 (the HepG2.2.15 cell line can be produced by transfection of the HepG2 cell line as described in Sells, Chen, and Acs 1987 (Proc. Natl. Acad. Sci. USA 84: 1005-1009), and the HepG2 cell line is available from ATCC® under number HB-8065™).
(§2) HepG2.2.15 cells were plated into 96-well plate in 2% FBS culture medium at the density of 40,000 cells/well and 5,000 cells/well for HBV inhibitory activity and cytotoxicity determination, respectively. After incubation at 37° C., 5% CO2 overnight, cells were treated with medium containing compounds for 6 days with medium and compounds refreshed after 3 days of treatment. Each compound was tested in a 1:3 serial dilutions at 8 different concentrations in triplicate. The highest concentration of the compounds was 10 uM or 1 uM for anti-HBV activity assay and 100 uM for cytotoxicity determination. Cell viability was determined by CCK-8 assay. After 6 days of compounds treatment, 20 μl CCK-8 reagents were added to each well of cytotoxicity assay plates. Cell plates were incubated at 37° C., 5% CO2 for 2.5 h. The absorbance at 450 nm wavelength and the absorbance at 630 nm wavelength as reference was measured.
(§3) EC50 and CC50 values are calculated by the GRAPHPAD PRISM software.

A further series relates to HBV. In words: Anti-viral assay in HepG2.2.15 cells: HBV DNA in culture medium by qPCR. The protocol:
as §1, §2
The change of HBV DNA level induced by the compounds was assessed by quantitative real-time polymerase chain reaction (qPCR). Briefly, the HBV DNA in the culture medium was extracted using QlAamp 96 DNA Blood Kit according to the manual and then quantified by real-time PCR assay using the primers and probe in the table 1 below.
as §3
A general note: Real-time PCR tracks product formation cycle by cycle.

The nature of series [1]: Cytotoxicity determination in HepG2.2.15 cells (CCK-8 cell viability). To be noted: human, 6 days treatment, CCK-8, highest concentration 100 uM. The protocol: as §1, §2, §3
[2] abbreviates: HepG2.2.15 cells, 6 days treatment, HBV DNA in culture medium by real-time PCR, read-out: EC50.
Setting [3] is: Hepatitis B virus, HepG2.2.15, 144 h.
Where [4] appears, read: Hepatitis B virus, HepG2.2.15, 144 h, HepG2.2.15 cells, 6 days treatment, HBV DNA in culture medium by real-time PCR, read-out: EC50.

Each structure is given as a SMILES string. Where two headings read alike, the source gives them in different places. Bounds are passed on as bounds.

With `COC(=O)C1=C(CN2CCO[C@H]3CN(CC(C)(C)C(=O)O)C(=O)[C@H]32)NC(c2nccs2)=N[C@H]1c1cccc(F)c1Cl` (single isomer, unassigned) [Compound I-24A, 3-((4aS*,7aS*)-4-4(R*)-6-(2-chloro-3-fluorophenyl)-5-(methoxycarbonyl)-2-(thiazol-2-yl)-3,6-dihydropyrimidin-4-yl)methyl)-5-oxohexahydropyrrolo[3,4-b][1,4]oxazin-6(2H)-yl)-2,2-dimethylpropanoic acid], the CC50 in the series with HepG2.2.15 cells is more than 100000 nM. The EC50 in the series with HBV (setting [2]) came out at 14 nM.
On the same counts, the results for `CCOC(=O)C1=C(CN2CCO[C@H]3CN(CC(C)(C)C(=O)O)C(=O)[C@H]32)NC(c2nccs2)=N[C@H]1c1ccc(F)cc1Cl` (relative stereo) [Compound I-20A, 3-((4aS*,7aS*)-4-4(R*)-6-(2-chloro-4-fluorophenyl)-5-(ethoxycarbonyl)-2-(thiazol-2-yl)-3,6-dihydropyrimidin-4-yl)methyl)-5-oxohexahydropyrrolo[3,4-b][1,4]oxazin-6(2H)-yl)-2,2-dimethylpropanoic acid] are 55000 nM and 1 nM.
`CCOC(=O)C1=C(CN2CCO[C@@H]3CN(c4ncc(C(=O)O)s4)C[C@@H]32)NC(c2nccs2)=N[C@H]1c1cccc(F)c1C` (racemic) [Compound I-8F, 2-((cis)-4-(((S)-5-(Ethoxycarbonyl)-6-(3-fluoro-2-methylphenyl)-2-(thiazol-2-yl)-3,6-dihydropyrimidin-4-yl)methyl)hexahydropyrrolo[3,4-b][1,4]oxazin-6(2H)-yl)thiazole-5-carboxylic acid] showed a CC50 at 6 days in series [1] of 37600 nM. In addition, in the series with HBV (setting [3]), the response was half-maximal at 45 nM (EC50).
`CCOC(=O)C1=C(CN2CCO[C@H]3CCN(CC(C)(C)C(=O)O)C[C@H]32)NC(c2nccs2)=N[C@H]1c1cccc(F)c1C` (single isomer, unassigned) [Compound I-10A, 3-((4aR*,8aS*)-4-(((S)-5-(Ethoxycarbonyl)-6-(3-fluoro-2-methylphenyl)-2-(thiazol-2-yl)-3,6-dihydropyrimidin-4-yl)methyl)hexahydro-2H-pyrido[4,3-b][1,4]oxazin-6(7H)-yl)-2,2-dimethylpropanoic acid]: the CC50 at 6 days in series [1] amounted to 94500 nM. For the same compound, the EC50 with HBV (setting [4]) came out at 28 nM.
On the same counts, the results for `COC(=O)C1=C(CN2CCO[C@H]3CN(C(=O)OC(C)(C)C)C[C@@H]32)NC(c2ncc(F)cc2F)=N[C@@H]1c1ccc(F)cc1Cl` (single isomer, unassigned) [Reference 1D, (4aS*,7aS*)-tert-butyl 4-4(S*)-6-(2-chloro-4-fluorophenyl)-2-(3,5-difluoropyridin-2-yl)-5-(methoxycarbonyl)-3,6-dihydropyrimidin-4-yl)methyl)hexahydropyrrolo[3,4-b][1,4]oxazine-6(2H)-carboxylate, reference compound] are 5600 nM and 812 nM.
For `COC(=O)C1=C(CN2CCO[C@H]3CN(CC(C)(C)C(=O)O)C(=O)[C@H]32)NC(c2nccs2)=N[C@H]1c1cccc(F)c1Cl` (single isomer, unassigned) [Compound I-21A, 3-((4aS*,7aS*)-4-4(R*)-6-(2-chloro-3-fluorophenyl)-5-(methoxycarbonyl)-2-(thiazol-2-yl)-3,6-dihydropyrimidin-4-yl)methyl)-5-oxohexahydropyrrolo[3,4-b][1,4]oxazin-6(2H)-yl)-2,2-dimethylpropanoic acid] the same measures were more than 100000 nM and 8 nM.
On to `CCOC(=O)C1=C(CN2CCO[C@H]3CN(CC(C)(C)C(=O)O)C[C@H]32)NC(c2nccs2)=N[C@H]1c1cccc(F)c1C` (relative stereo) [Compound I-6A, 3-((4aR*,7aS*)-4-4(S)-5-(Ethoxycarbonyl)-6-(3-fluoro-2-methylphenyl)-2-(thiazol-2-yl)-3,6-dihydropyrimidin-4-yl)methyphexahydropyrrolo[3,4-b][1,4]oxazin-6(2H)-yl)-2,2-dimethylpropanoic acid], for which the CC50 at 6 days in series [1] is 82400 nM. In the series with HBV (setting [4]), the EC50 stood at 18 nM.
Turning to `CCOC(=O)C1=C(CN2CCO[C@@H]3CN(C(C)=O)C[C@@H]32)NC(c2nccs2)=N[C@H]1c1cccc(F)c1C` (racemic) [Compound I-4E, (S)-ethyl 6-(((cis)-6-acetylhexahydropyrrolo[3,4-b][1,4]oxazin-4(4aH)-yl)methyl)-4-(3-fluoro-2-methylphenyl)-2-(thiazol-2-yl)-1,4-dihydropyrimidine-5-carboxylate], half-maximal cytotoxicity in series [1] (CC50 at 6 days) was put at 48300 nM. For the same compound, it took 7.1 nM to reach a half-maximal effect in the series with HBV (setting [3]) (EC50).
Consider `CCOC(=O)C1=C(CN2CCO[C@@H]3CN(S(=O)(=O)C4CC(C)(C(=O)O)C4)C[C@@H]32)NC(c2nccs2)=N[C@H]1c1cccc(F)c1C` (relative stereo) [Compound I-9F, (4aS*,7aR*)—(S)-3-((4-((5-(Ethoxycarbonyl)-6-(3-fluoro-2-methylphenyl)-2-(thiazol-2-yl)-3,6-dihydropyrimidin-4-yl)methyphexahydropyrrolo[3,4-b][1,4]oxazin-6(2H)-yl)sulfonyl)-1-methylcyclobutanecarboxylic acid], for which, in series [1], the half-maximal cytotoxic concentration (CC50) at 6 days was 82600 nM. The EC50 in the series on HBV (setting [4]) was found to be 110 nM.
For `COC(=O)C1=C(CN2CCO[C@H]3CN(C(=O)OC(C)(C)C)C[C@H]32)NC(c2ncc(F)cc2F)=N[C@@H]1c1ccc(F)cc1Cl` (single isomer, unassigned) [Reference 1F, tert-butyl (4aR*,7aS*)-4-4(S*)-6-(2-chloro-4-fluorophenyl)-2-(3,5-difluoropyridin-2-yl)-5-(methoxycarbonyl)-3,6-dihydropyrimidin-4-yl)methyphexahydropyrrolo[3,4-b][1,4]oxazine-6(2H)-carboxylate, reference compound] the same measures were 5800 nM and 87 nM.
For `COC(=O)C1=C(CN2CCO[C@H]3CN(C(=O)OC(C)(C)C)C[C@@H]32)NC(c2ncc(F)cc2F)=N[C@H]1c1ccc(F)cc1Cl` (single isomer, unassigned) [Reference 1B, (4aS*,7aS*)-tert-butyl 4-(((R*)-6-(2-chloro-4-fluorophenyl)-2-(3,5-difluoropyridin-2-yl)-5-(methoxycarbonyl)-3,6-dihydropyrimidin-4-yl)methyl)hexahydropyrrolo[3,4-b][1,4]oxazine-6(2H)-carboxylate, reference compound] the same measures were 2500 nM and more than 1000 nM.
For `COC(=O)C1=C(CN2CCO[C@H]3CN(CC(C)(C)C(=O)O)C(=O)[C@H]32)NC(c2nccs2)=N[C@H]1c1ccc(F)c(F)c1Cl` (single isomer, unassigned) [Compound I-22A, 3-((4aS*,7aS*)-4-4(R*)-6-(2-chloro-3,4-difluorophenyl)-5-(methoxycarbonyl)-2-(thiazol-2-yl)-3,6-dihydropyrimidin-4-yl)methyl)-5-oxohexahydropyrrolo[3,4-b][1,4]oxazin-6(2H)-yl)-2,2-dimethylpropanoic acid] the same measures were 44300 nM and 0.5 nM.
`COC(=O)C1=C(CN2CCO[C@H]3CN(CC(C)(C)C(=O)O)C(=O)[C@H]32)NC(c2nccs2)=N[C@H]1c1ccc(F)c(F)c1C` (single isomer, unassigned) [Compound I-17B, 3-((4aS*,7aS*)-4-(((S*)-6-(3,4-difluoro-2-methylphenyl)-5-(methoxycarbonyl)-2-(thiazol-2-yl)-3,6-dihydropyrimidin-4-yl)methyl)-5-oxohexahydropyrrolo[3,4-b][1,4]oxazin-6(2H)-yl)-2,2-dimethylpropanoic acid] displayed a CC50 at 6 days in series [1] of 41700 nM. For the same compound, the EC50 in the series on HBV (setting [4]) came out at 2.6 nM.
Take `CCOC(=O)C1=C(CN2CCO[C@H]3CN(C(=O)CC(C)(C)C(=O)O)C[C@H]32)NC(c2nccs2)=N[C@H]1c1cccc(F)c1C` (relative stereo) [Compound I-2A, 4-((4aR*,7aS*)-4-4(S)-5-(ethoxycarbonyl)-6-(3-fluoro-2-methylphenyl)-2-(thiazol-2-yl)-3,6-dihydropyrimidin-4-yl)methyl)hexahydropyrrolo[3,4-b][1,4]oxazin-6(2H)-yl)-2,2-dimethyl-4-oxobutanoic acid]: the CC50 at 6 days in series [1] turned out to be 74000 nM. Besides, in the series on HBV (setting [3]), a half-maximal effect (EC50) was put at 33 nM.
On to `COC(=O)C1=C(CN2CCO[C@H]3CN(CC(C)(C)C(=O)O)C[C@H]32)NC(c2nccs2)=N[C@H]1c1cccc(F)c1Cl` (single isomer, unassigned) [Compound I-16A, 3-((4aR*,7aS*)-4-0(R*)-6-(2-Chloro-3-fluorophenyl)-5-(methoxycarbonyl)-2-(thiazol-2-yl)-3,6-dihydropyrimidin-4-yl)methyl)hexahydropyrrolo[3,4-b][1,4]oxazin-6(2H)-yl)-2,2-dimethylpropanoic acid], for which the CC50 at 6 days in series [1] came out at 92800 nM. For the same compound, the EC50 in the series on HBV (setting [4]) was determined as 15 nM.

In general, CC50 refers to the concentration that lowers cell viability or growth by half. A word on the EC50: it is the midpoint of the concentration-response curve.
